# Results reported in patent US11780845B2 (Relay Therapeutics, Inc., priority 2019, dated 2023).
# Biological target: T1, FGFR2 (Homo sapiens (Human), UniProt P21802)
# Experiment: Biochemical FGFR2 Caliper assay
# T1 sequence (P21802 22-821): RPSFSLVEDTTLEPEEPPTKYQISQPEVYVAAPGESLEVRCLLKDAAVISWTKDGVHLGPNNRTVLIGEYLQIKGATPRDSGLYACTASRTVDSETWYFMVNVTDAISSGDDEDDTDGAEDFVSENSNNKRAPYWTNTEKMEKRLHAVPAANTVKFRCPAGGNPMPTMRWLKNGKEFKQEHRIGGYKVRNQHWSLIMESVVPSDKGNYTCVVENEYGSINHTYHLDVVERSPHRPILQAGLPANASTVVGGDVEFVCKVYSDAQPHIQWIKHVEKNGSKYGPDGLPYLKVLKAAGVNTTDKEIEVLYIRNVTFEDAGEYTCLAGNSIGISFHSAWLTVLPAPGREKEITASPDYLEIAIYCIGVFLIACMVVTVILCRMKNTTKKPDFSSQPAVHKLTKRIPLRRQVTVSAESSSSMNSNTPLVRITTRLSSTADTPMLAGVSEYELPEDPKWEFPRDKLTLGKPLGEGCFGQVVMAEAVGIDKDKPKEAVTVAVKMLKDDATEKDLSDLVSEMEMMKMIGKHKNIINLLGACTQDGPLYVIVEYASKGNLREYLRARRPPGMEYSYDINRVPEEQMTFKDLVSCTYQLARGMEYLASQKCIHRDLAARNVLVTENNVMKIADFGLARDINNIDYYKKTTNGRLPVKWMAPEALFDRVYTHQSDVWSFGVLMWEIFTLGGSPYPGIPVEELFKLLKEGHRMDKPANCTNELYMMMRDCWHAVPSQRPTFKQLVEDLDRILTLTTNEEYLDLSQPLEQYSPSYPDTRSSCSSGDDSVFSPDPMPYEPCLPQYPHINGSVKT
row,SMILES,IC50 [µM]
1,C=CC(=O)Nc1ccc(-c2[nH]c3ncnc(C)c3c2-c2ccc(Oc3ccccc3)cc2)cc1 [Example 1254],1 to 100
2,[2H]C#Cc1cc2c(cn1)-c1c(-c3ccc(Oc4nccc(C)n4)c(F)c3)c3c(N)ncnc3n1CCC2 [Example 1449],< 0.1
3,C=CC(=O)Nc1ccc(-c2c(-c3ccc(Oc4nccc(C)n4)c(C)c3)c3c(N)ncnc3n2C)c(F)c1 [Example 1075],< 0.1
4,C=Cc1cc(-c2c(-c3ccccc3)c3c(N)ncnc3n2C)ccn1 [Example 1195],0.1 to 0.25
5,C#Cc1cc2c(cn1)-c1c(C3=CC[C@@H](C(=O)N4CCC[C@H]4C#N)CC3)c3c(N)ncnc3n1CCC2 [Example 1444],< 0.1
6,C=C(C)C(=O)Nc1cnc(-c2c(-c3ccc(Oc4cccc(C)n4)c(F)c3)c3c(C)ncnc3n2C)c(C)c1 [Example 1139],< 0.1
7,C#Cc1cnc(-c2c(-c3ccc(Oc4nccc(C)n4)cc3)c3c(N)ncnc3n2C)c(C)n1 [Example 1176],1 to 100
8,C=C(C)C(=O)Nc1ccc(-c2c(C3=CCN(c4ccccc4)CC3)c3c(N)ncnc3n2C)cc1 [Example 1216],1 to 100
9,C#Cc1cc2c(cn1)-c1c(C3=CC[C@H](C(=O)N4CCC[C@H]4C#N)CC3)c3c(N)ncnc3n1CCC2 [Example 1496],0.25 to 1
10,C=CC(=O)Nc1ccc(-c2[nH]c3ncnc(C)c3c2-c2cc3ccccc3s2)cc1 [Example 1256],1 to 100
11,C#Cc1cc(C)c(-c2c(-c3ccc(OC(F)(F)F)cc3)c3c(N)ncnc3n2C)cn1 [Example 1129],< 0.1
12,C#Cc1ccc(-c2c(-c3ccc(Oc4nccc(C)n4)c(F)c3)c3c(C)ncnc3n2C)c(C)n1 [Example 1174],1 to 100
13,C#Cc1ccc(-c2c(-c3ccccc3)c3c(N)ncnc3n2C)cn1 [Example 1192],< 0.1
14,C#Cc1cc(C)c(-c2c(-c3ccc(Oc4nccc(C)n4)cc3F)c3c(N)ncnc3n2C)cn1 [Example 1196],0.25 to 1
15,CN(C)C/C=C/C(=O)Nc1cccc(-c2c(-c3ccc(C(=O)N4CCCC4)cc3)c3c(N)ncnc3n2C)c1 [Example 1099],< 0.1
16,C=C(C)C(=O)Nc1ccc(-c2c(C3=CCN(C(=O)OCc4ccccc4)CC3)c3c(N)ncnc3n2C)cc1 [Example 1190],1 to 100
17,C=C(C)C(=O)Nc1ccc(-c2c(-c3sc4ccccc4c3C)c3c(N)ncnc3n2C)cc1 [Example 1247],1 to 100

# Second part, the compound after the results:
row,IC50 [µM],SMILES
1,< 0.1,C=CC(=O)Nc1ccc(-c2c(-c3cnsc3)c3c(N)ncnc3n2C)cc1 [Example 1150]
2,< 0.1,C=CC(=O)Nc1ccc(-c2c(-c3cc4ccccc4s3)c3c(N)ncnc3n2C)cc1 [Example 1149]
3,1 to 100,C=C(C)C(=O)Nc1ccc(-c2c(-c3ccc(-c4ccn[nH]4)cc3)c3c(N)ncnc3n2C)cc1 [Example 1156]
4,0.25 to 1,C=C(C)C(=O)Nc1ccc(-c2c(-c3ccc(-c4coc(C)n4)cc3)c3c(N)ncnc3n2C)cc1 [Example 1224]
5,1 to 100,C=C(C)C(=O)Nc1ccc(-c2c(-c3ccc(-c4noc(C5CC5)n4)c(N)c3)c3c(N)ncnc3n2C)cc1 [Example 1318]
6,0.25 to 1,C=C(C)C(=O)Nc1ccc(-c2c(-c3ccc(-n4ccc(C)n4)nc3)c3c(N)ncnc3n2C)cc1 [Example 1146]
7,0.25 to 1,C=C(C)C(=O)Nc1ccc(-c2c(-c3ccc(-c4noc(C5CC5)n4)cc3)c3c(N)ncnc3n2C)cc1 [Example 1333]
8,1 to 100,C=C(C)C(=O)Nc1ccc(-c2c(-c3ccc(-n4cc(C)cn4)cc3)c3c(N)ncnc3n2C)cc1 [Example 1191]
9,1 to 100,C=C(C)C(=O)Nc1ccc(-c2c(-c3ccc(-c4noc(C5CC5)n4)c([N+](=O)[O-])c3)c3c(N)ncnc3n2C)cc1 [Example 1317]
10,< 0.1,C=C(C)C(=O)Nc1ccc(-c2c(-c3ccc4nn(C)cc4c3)c3c(N)ncnc3n2C)cc1 [Example 1122]
11,1 to 100,C=CC(=O)Nc1ccc(-c2c(-c3ccccc3)c3c(C)ncnc3n2C)cc1 [Example 1248]
12,0.1 to 0.25,C=C(F)C(=O)Nc1ccc(-c2c(-c3ccc(-c4noc(C5CC5)n4)cc3)c3c(N)ncnc3n2C)cc1 [Example 1326]
13,1 to 100,C=C(C)C(=O)Nc1ccc(-c2c(-c3ccc(-n4cc(C(F)(F)F)cn4)cc3)c3c(N)ncnc3n2C)cc1 [Example 1226]
14,< 0.1,C=CC(=O)Nc1ccc(-c2c(-c3ccc(Oc4cccc(C)n4)cc3)c3c(C)ncnc3n2C)cc1 [Example 1220]
15,1 to 100,C=CC(=O)Nc1ccc(-c2c(-c3cc4ccccc4s3)c3c(C)ncnc3n2C)cc1 [Example 1223]
16,< 0.1,C=CC(=O)Nc1ccc(-c2c(-c3ccc(-c4noc(C5CC5)n4)cc3)c3c(N)ncnc3n2C)cc1 [Example 1335]

# Biological target: T1, FGFR2
# Experiment: FGFR2 Biochemical Caliper Assay
# Protocol: Compounds of the present invention were also tested in a FGFR2 Biochemical Caliper Assay. Compounds were prepared in 10 mM DMSO solution and serially diluted into 11 concentrations by 3-fold dilution. […] 5 uL of ATP solution (100 uM) was added to start the reaction and the plate was incubated for 90 minutes, then 70 uL of stopping buffer (0.5M EDTA) was added to terminate the reaction. Each well was analyzed using EZ reader.
row,SMILES,IC50 [µM]
1,C=C(C)C(=O)Nc1ccc(-c2c(-c3ccc(C(O)c4ncccn4)c(OC)c3)c3c(N)ncnc3n2C)cc1 (stereo not drawn) [Example 93],0.25 to 1
2,C=CC(=O)N1CCC(n2cc(-c3c(-c4ccccc4OC)c4c(N)ncnc4n3C)cn2)CC1 [Example 611],1 to 100
3,C=C(C)C(=O)Nc1ccc(-c2c(-c3ccc(Oc4cccc(C)n4)cc3)c3c(N)ncnc3n2C2CCOCC2)cc1 [Example 88],0.1 to 0.25
4,C=C(C)C(=O)Nc1ccc(-c2c(-c3ccc(C(=O)N4CCCC4)cc3)c3c(N)ncnc3n2C)c(C2CC2)c1 [Example 518],< 0.1
5,"C=C(C)C(=O)Nc1ccc(-c2c(C3=CC[C@H](C(=O)N4CCC[C@H]4C#N)CC3)c3c(N)ncnc3n2C)cc1 (single isomer, unassigned) [Example 574]",0.25 to 1
6,C=C(C)C(=O)Nc1ccc(-c2c(-c3ccc(C(=O)NCC(C)(C)OC)nc3)c3c(N)ncnc3n2C)cc1 [Example 438],1 to 100
7,C=C(C)C(=O)Nc1ccc(-c2c(-c3ccc(Oc4ncc(F)cn4)nc3)c3c(N)ncnc3n2C)cc1 [Example 453],1 to 100
8,C=CC(=O)N1CCCc2cc(-c3c(-c4ccc(Oc5cccc(C)n5)c(OC)c4)c4c(N)ncnc4n3C)ccc21 [Example 3],< 0.1
9,C=C(C)C(=O)Nc1ccc(-c2c(-c3ccc(Oc4cccc(C)n4)cc3)c3c(N)ncnc3n2CCN2CCN(C)CC2)cc1 [Example 89],< 0.1
10,C=C(C)C(=O)Nc1ccc(-c2c(-c3ccc(Cn4cc(C)cn4)c(F)c3)c3c(N)ncnc3n2C)cc1 [Example 158],1 to 100

# Further lines, results first:
row,IC50 [µM],SMILES
1,0.25 to 1,C=C(C)C(=O)Nc1ccc(-c2c(-c3ccc(C(=O)NC4CC(O)C4)cc3)c3c(N)ncnc3n2C)cc1 (stereo not drawn) [Example 328]
2,1 to 100,C=C(C)C(=O)Nc1ccc(-c2c(-c3ccc4c(c3)C(C)N(C)C4=O)c3c(N)ncnc3n2C)cc1 (stereo not drawn) [Example 287]
3,< 0.1,C=C(C)C(=O)Nc1ccc(-c2c(-c3ccc(Oc4ncccn4)cc3)c3c(N)ncnc3n2C)cc1 [Example 52]
4,1 to 100,C=C(C)C(=O)Nc1ccc(-c2c(-c3ccc4c(c3)CN(C)C4=O)c3c(N)ncnc3n2C)cc1 [Example 209]
5,1 to 100,C=C(C)C(=O)Nc1ccc(-c2c(-c3ccc4c(c3)CCC4C(=O)N(C)C)c3c(N)ncnc3n2C)cc1 (stereo not drawn) [Example 191]
6,< 0.1,C=C(C)C(=O)Nc1ccc(-c2c(-c3ccc(C(=O)NC(C)CO)cc3)c3c(N)ncnc3n2C)cc1 (stereo not drawn) [Example 319]
7,1 to 100,Cn1c(-c2ccc(NC(=O)C=C3CCCC3)cc2)c(-c2ccc(C(=O)N3CCCC3)cc2)c2c(N)ncnc21 [Example 545]
8,1 to 100,C=C(C)C(=O)Nc1ccc(-c2c(-c3ccc(CN4CCN(C)CC4)cc3)c3c(N)ncnc3n2C)cc1 [Example 172]
